The record followed here is PMC10452181, “Synthesis and Biological Evaluation of Cyclobutane-Based β3 Integrin Antagonists: A Novel Approach to Targeting Integrins for Cancer Therapy” (Cancers, 2023).

One series has as its target T1, αvβ3 (Homo sapiens, UniProt P05106+P06756).
T1 construct: endogenous in cells; host or cells: SK-Mel-2 melanoma cells
Kind of series: Sk-Mel-2 cell adhesion to immobilised fibronectin (cell-binding assay, MTT readout). The format is cell-based. The note with it: Sk-Mel-2 adhesion to Fn, mean ± SD. On the procedure:
First, 96-well plates (Corning, VWR) were coated overnight at 4 °C with 0.5 μg/well fibronectin (Sigma). SK-Mel-2 cells were trypsinised, washed and resuspended in RPMI medium only at 10^5 cells/mL. Cells (100 µL/well) were treated with compound (DMSO final concentration 0.1%) at the indicated concentration for 4 hrs on a rotary shaker. Plates were washed (3 × PBS) and blocked with PBS/5% BSA for 2 hrs at 37 °C prior to adding the cells. Cells were incubated on the plates at 37 °C in a humidified chamber with 5% CO2 for 1 hr. The plates were washed 3× with PBS and a 200 µL/well RPMI medium containing 10% FCS added. The plates were incubated overnight at 37 °C as above. Finally, 0.5 mg/mL of 3-(4,5-dimethythiazol-2-yl)-2,5-diphenyl tetrazolium bromide (MTT) was added to each well and the plates incubated for a further 4 h. The medium was removed, and the insoluble formazan dissolved in 150 µL of DMSO. Absorbance was measured at 540 nm using a Thermo Multiskan EX (Thermofisher, UK)and Ascent Software (v2.6). Total binding was determined based on controls lacking any compounds (100% binding) in fibronectin-coated wells and uncoated wells blocked with BSA (0% binding) and corrected for background (no cells, fibronectin-coated).
As an initial test of anti-β3 activity, the ability of compounds to inhibit the adhesion of melanoma cells expressing high levels of αvβ3 and low levels of other RGD-binding integrins such as αvβ5 and α5β1 to immobilised fibronectin was evaluated.
Cells were seeded onto precoated plates in the presence or absence of putative antagonists and the number of adherent cells quantified colorimetrically.

In a further series the test system is Sk-Mel-2. Description: in vitro. The format is cell-based, human. How it is done: Before use in cell-based assays of integrin function, the effect of compounds on cell proliferation was tested using the MTT assay to avoid adhesion results being confounded by cell death (Supplementary Table S1). The effect of compounds on cell adhesion was then initially tested at a single, nontoxic concentration to identify active antagonists for further characterisation; those displaying a promising activity in the adhesion assay were tested at a wider range of concentrations to determine the IC50 (Table 2). […] Nevertheless, it is a cost-effective initial screening method. page 4: Table S1. Cytotoxicity of compounds on the cell lines used in the functional assays (measured by MTT assay). Cells (2000 cells/well for Sk-Mel-2; 1 x 10^4 cells/mL for M14) were incubated for 96 hours at 37 ° C in a total volume of 200 μL/well (180 μL medium + 20 μ L test compound solution). After 96 hours, the medium was replaced by fresh medium containing 0.5 mg/ml (end conc.) MTT per well, incubated for 4 h then the plate processed and read as described in the main text. […] ICT9053 41 naphthyridine 1 NHSO2Mes H Ester 52.6 ± 0.6 72.7 ± 9.8 ICT9065 42 naphthyridine 1 H H Ester >100 - ICT9079 43 naphthyridine 0 NHSO2Mes H Ester ~100 - ICT9061 44 naphthyridineT 1 NHSO2Mes H Ester 46.8 ± 10.7 - […] Ester 65.4 ± 11.1 >100 […] Ester 9.6 ± 5.7 >100 […] Ester >100 - […] Ester 54.6 ± 11.0 - […] Ester >5 3.3 ± 0.8 […] ICT9028 51 pyrimidine 2 NHSO2Ph H Acid >100 - ICT9031 52 pyrimidineT 1 NHSO2Mes H Acid >100 - ICT9090 53 pyrimidineT 2 NHSO2Mes H Acid >50 - ICT9029 54 pyrimidineT 2 NHSO2Ph H Acid >100 - ICT9063 55 naphthyridine 1 NHSO2Mes H Acid 61.7 ± 2.8 - […] Acid 45.5 ± 7.9 >100 […] 42.5 ± 1.8 >50 RGDS >50 - T trans configuration of cyclobutane sidechains.

A further series has as its target T2, αIIbβ3 (Homo sapiens, UniProt P05106+P08514).
T2 construct: purchased Sigma
Description: αIIbβ3/fibrinogen purified protein binding ELISA. The note with it: mean ± SD; for IC50: read-out: IC50 (αIIbβ3/Fg). How it is done:
ELISA assays were performed as previously described with minor modifications. Briefly, serial dilutions of compounds were prepared in dimethyl sulfoxide (DMSO). C8 Maxi Immuno modules (Fisher Scientific) were incubated overnight at 4 °C with 0.5 μg/well of fibrinogen (Sigma) in sterile phosphate buffered saline (PBS, 0.2 g/L KCl, 8.0 g/L NaCl, 0.2 KH2PO4, 1.15 g/L Na2HPO4, pH 7.4). All subsequent wash steps were performed using 25 mM Tris, pH 7.6, 150 mM NaCl, 1 mM MnCl2, 1 mg/mL BSA, and binding/inhibition was carried out in 25 mM Tris, pH 7.6, 150 mM NaCl, 1 mM MnCl2, 1 mM MgCl2, 1 mM CaCl2, 1 mg/mL BSA.
Wells were washed and blocked with a blocking solution (PBS, 0.1% Tween 20, 3% BSA) for 1 h at 37 °C. Compounds were added to the wells at indicated concentrations (final 0.5% DMSO) in the presence of 0.5 µg/well αIIbβ3 (Sigma) and incubated at room temp for 1 h. After 3 washes, primary anti-αIIb (1:200 dilution, Santa Cruz Biotech, Heidelberg, Germany) and antigoat–HRP (1:500 dilution, Dako, Agilent, Santa Clara, CA, USA) were added at room temp for 1 h. The wells were washed and incubated with 0.1 mg/mL tetra-methylbenzidine (Sigma) for 25 min and the reaction was stopped with 1N H2SO4 (100 μL/well). The absorbance was measured at 450 nm using a Multiscan Spectrum reader (Thermo Scientific, Thermofisher, UK) and SkanIT RE (v2.4.4.5) software. Results were plotted as percent binding vs. log concentration and IC50 values determined.

T1 sequence (P06756 31-889 limits assumed): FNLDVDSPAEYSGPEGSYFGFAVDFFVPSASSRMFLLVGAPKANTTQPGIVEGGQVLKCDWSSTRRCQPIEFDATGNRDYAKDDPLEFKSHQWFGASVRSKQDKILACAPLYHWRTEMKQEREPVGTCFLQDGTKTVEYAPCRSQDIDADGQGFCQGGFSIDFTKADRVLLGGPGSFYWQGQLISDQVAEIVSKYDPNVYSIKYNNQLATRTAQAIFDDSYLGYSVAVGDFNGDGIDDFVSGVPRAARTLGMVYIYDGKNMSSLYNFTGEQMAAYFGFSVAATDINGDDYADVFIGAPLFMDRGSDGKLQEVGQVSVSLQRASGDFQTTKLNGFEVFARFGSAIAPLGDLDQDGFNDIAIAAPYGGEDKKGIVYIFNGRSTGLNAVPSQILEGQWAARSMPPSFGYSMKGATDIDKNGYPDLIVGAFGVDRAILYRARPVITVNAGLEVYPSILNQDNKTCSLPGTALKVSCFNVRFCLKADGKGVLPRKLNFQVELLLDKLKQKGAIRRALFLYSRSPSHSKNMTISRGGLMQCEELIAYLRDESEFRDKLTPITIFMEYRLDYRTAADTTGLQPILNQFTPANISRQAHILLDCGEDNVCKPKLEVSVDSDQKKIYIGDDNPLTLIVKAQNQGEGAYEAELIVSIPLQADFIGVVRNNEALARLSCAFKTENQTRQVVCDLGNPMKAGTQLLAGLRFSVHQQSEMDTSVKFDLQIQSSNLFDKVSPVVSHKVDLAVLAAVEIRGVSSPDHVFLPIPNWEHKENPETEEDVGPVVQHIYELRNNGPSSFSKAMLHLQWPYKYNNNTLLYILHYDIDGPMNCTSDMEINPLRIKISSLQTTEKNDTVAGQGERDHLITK
T1 sequence (P06756 891-1048 partner limits assumed): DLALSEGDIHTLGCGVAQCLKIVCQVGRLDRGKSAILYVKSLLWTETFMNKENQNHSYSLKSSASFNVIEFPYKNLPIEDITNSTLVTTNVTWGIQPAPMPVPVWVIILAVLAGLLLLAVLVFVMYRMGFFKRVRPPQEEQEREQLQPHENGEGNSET
T1 sequence (P05106 27-788): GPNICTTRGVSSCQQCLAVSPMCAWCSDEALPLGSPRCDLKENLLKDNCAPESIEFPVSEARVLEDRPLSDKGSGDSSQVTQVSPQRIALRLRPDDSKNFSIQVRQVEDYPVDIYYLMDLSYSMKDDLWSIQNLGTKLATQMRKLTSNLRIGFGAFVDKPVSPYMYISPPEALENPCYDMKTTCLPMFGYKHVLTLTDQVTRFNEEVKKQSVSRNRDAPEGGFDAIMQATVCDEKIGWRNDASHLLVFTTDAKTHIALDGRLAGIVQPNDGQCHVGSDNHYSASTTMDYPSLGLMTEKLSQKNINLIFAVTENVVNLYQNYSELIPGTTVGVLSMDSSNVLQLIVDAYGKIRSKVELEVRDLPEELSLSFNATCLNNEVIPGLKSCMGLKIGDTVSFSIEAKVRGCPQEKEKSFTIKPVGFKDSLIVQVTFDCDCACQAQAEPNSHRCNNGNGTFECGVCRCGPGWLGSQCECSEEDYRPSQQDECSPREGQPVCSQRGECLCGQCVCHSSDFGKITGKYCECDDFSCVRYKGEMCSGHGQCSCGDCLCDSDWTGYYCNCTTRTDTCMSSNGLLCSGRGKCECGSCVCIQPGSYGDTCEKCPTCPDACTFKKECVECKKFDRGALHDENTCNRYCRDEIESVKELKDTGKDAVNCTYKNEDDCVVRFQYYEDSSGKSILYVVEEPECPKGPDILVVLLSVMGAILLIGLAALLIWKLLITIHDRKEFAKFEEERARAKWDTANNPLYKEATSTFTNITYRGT
T2 sequence (P08514 32-887 limits assumed): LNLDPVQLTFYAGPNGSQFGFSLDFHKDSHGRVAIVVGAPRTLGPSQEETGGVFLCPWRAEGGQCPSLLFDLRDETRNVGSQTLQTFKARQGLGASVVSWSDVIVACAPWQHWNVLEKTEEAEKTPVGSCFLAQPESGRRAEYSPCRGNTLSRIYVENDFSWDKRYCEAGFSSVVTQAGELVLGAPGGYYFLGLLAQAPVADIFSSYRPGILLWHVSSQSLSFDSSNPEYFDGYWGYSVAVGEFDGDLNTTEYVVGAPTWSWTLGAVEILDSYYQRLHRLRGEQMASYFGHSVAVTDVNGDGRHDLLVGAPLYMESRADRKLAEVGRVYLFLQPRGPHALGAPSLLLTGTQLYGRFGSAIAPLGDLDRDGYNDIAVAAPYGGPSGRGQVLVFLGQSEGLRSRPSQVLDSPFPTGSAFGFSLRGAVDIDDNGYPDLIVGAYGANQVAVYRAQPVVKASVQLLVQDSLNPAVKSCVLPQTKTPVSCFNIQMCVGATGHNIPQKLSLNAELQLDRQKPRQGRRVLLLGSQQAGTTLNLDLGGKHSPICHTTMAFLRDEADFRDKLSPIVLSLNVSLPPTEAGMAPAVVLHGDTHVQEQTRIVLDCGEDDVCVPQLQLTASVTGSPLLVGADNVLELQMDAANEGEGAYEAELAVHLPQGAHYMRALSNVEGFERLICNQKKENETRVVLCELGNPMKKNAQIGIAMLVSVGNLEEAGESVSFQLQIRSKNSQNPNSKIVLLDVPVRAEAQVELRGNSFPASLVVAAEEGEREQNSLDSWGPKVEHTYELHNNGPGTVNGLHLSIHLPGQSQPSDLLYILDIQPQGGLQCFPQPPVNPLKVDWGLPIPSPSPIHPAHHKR
T2 sequence (P08514 891-1039 partner limits assumed): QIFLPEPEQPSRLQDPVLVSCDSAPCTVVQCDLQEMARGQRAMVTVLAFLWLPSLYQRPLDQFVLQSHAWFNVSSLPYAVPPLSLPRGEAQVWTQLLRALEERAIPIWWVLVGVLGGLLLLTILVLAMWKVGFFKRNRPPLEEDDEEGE
T2 sequence (P05106 27-788): as the sequence (P05106 27-788) above

In the case of `COC(=O)[C@@H](CNC(=O)[C@H]1C[C@@H](CCCNc2ncccn2)C1)NS(=O)(=O)c1ccccc1` [ICT9021 25, (R)-methyl 2-(phenylsulfonamido)-3-((1r,3s)-3-(3-(pyrimidin-2-ylamino)propyl)cyclobutanecarboxamido)propanoate], the “Adhesion % Inhibition @ 50 μM” value on αvβ3 is given as 22.2 ± 22.3%. The IC50 in the series on Sk-Mel-2 is more than 100 µM.

With `COC(=O)[C@H](CNC(=O)C1CC(CCCNc2ncccn2)C1)NS(=O)(=O)c1ccccc1` (stereo partly drawn) [ICT9023 23, (S)-methyl 2-(phenylsulfonamido)-3-((1r,3r)-3-(3-(pyrimidin-2-ylamino)propyl)cyclobutanecarboxamido)propanoate], the “Adhesion % Inhibition @ 50 μM” value at αvβ3 came to 7.4 ± 15.1%. Also, on αIIbβ3, the “% Inhibition (αIIbβ3/Fg) @ 50 μM” value was determined as 10.9 ± 15.4%. The compound also had an IC50 in the series with Sk-Mel-2 of more than 100 µM.

Regarding `COC(=O)[C@H](CNC(=O)[C@H]1C[C@H](CCNc2ncccn2)C1)NS(=O)(=O)c1c(C)cc(C)cc1C` [ICT9024 27, (S)-methyl 3-((1r,3s)-3-(2-(pyrimidin-2-ylamino)ethyl)cyclobutanecarboxamido)-2-(2,4,6-trimethylphenylsulfonamido)propanoate], on αvβ3, the “Adhesion % Inhibition @ 5 μM” value was 39.4 ± 17.1%, the “Adhesion % Inhibition @ 50 μM” value amounted to 94.2 ± 4.1% and the IC50 was 13 ± 3 µM. On αIIbβ3, the “% Inhibition (αIIbβ3/Fg) @ 50 μM” value is 33.5 ± 2.8% and the IC50 came to 50 ± 5 µM. In the series on Sk-Mel-2, this compound returned an IC50 of 55.9 ± 4.9 µM.

Regarding `COC(=O)[C@H](CNC(=O)[C@H]1C[C@@H](CCCNc2ncccn2)C1)NS(=O)(=O)c1c(C)cc(C)cc1C` [ICT9025 28, (S)-methyl 3-((1s,3s)-3-(3-(pyrimidin-2-ylamino)propyl)cyclobutanecarboxamido)-2-(2,4,6-trimethylphenylsulfonamido)propanoate], at αvβ3, the “Adhesion % Inhibition @ 5 μM” value is recorded as 0 ± 19.6%, the “Adhesion % Inhibition @ 50 μM” value came out at 92.5 ± 8.1% and the IC50 was determined as 38 ± 11 µM. Besides, at αIIbβ3, the “% Inhibition (αIIbβ3/Fg) @ 50 μM” value is on record as 35.0 ± 11.3% and the IC50 was more than 100 µM. This compound also registered an IC50 in the series with Sk-Mel-2 of 55.3 ± 1.6 µM.

In the case of `COC(=O)[C@H](CNC(=O)[C@H]1C[C@@H](CCCNc2ncccn2)C1)NS(=O)(=O)c1ccccc1` [ICT9026 29, (S)-methyl 2-(phenylsulfonamido)-3-((1s,3s)-3-(3-(pyrimidin-2-ylamino)propyl)cyclobutanecarboxamido)propanoate], at αIIbβ3, the “% Inhibition (αIIbβ3/Fg) @ 50 μM” value stood at 31.6 ± 10.7%. The IC50 with Sk-Mel-2 is more than 100 µM.

For the compound `O=C(O)[C@H](CNC(=O)[C@H]1C[C@H](CCCNc2ncccn2)C1)NS(=O)(=O)c1ccccc1` [ICT9028 51, (S)-2-(phenylsulfonamido)-3-((1r,3r)-3-(3-(pyrimidin-2-ylamino)propyl)cyclobutanecarboxamido)propanoic acid], the “Adhesion % Inhibition @ 50 μM” value at αvβ3 is listed as 31.8 ± 10.0%. In addition, the IC50 is more than 50 µM on αvβ3, 7.8 ± 2.8 µM on αIIbβ3 and more than 100 µM with Sk-Mel-2. Also, the “% Inhibition (αIIbβ3/Fg) @ 50 μM” value at αIIbβ3 is given as 93.6 ± 2.2%.

For the compound `O=C(O)[C@H](CNC(=O)[C@H]1C[C@@H](CCCNc2ncccn2)C1)NS(=O)(=O)c1ccccc1` [ICT9029 54, (S)-2-(phenylsulfonamido)-3-((1s,3s)-3-(3-(pyrimidin-2-ylamino)propyl)cyclobutanecarboxamido)propanoic acid], at αvβ3, the “Adhesion % Inhibition @ 50 μM” value amounted to 42.5 ± 14.1% and the IC50 was more than 50 µM. Moreover, on αIIbβ3, the “% Inhibition (αIIbβ3/Fg) @ 50 μM” value is 100 ± 6% and the IC50 was determined as 3.3 ± 3.3 µM. The same compound showed an IC50 in the series with Sk-Mel-2 of more than 100 µM.

For the compound `COC(=O)[C@H](CNC(=O)C1CC(CCc2ccc3cccnc3n2)C1)NS(=O)(=O)c1ccccc1` (stereo partly drawn) [ICT9054 40, (S)-methyl 3-((1r,3r)-3-(2-(1,8-naphthyridin-2-yl)ethyl)cyclobutanecarboxamido)-2-(phenylsulfonamido)propanoate], at αvβ3, the “Adhesion % Inhibition @ 5 μM” value is recorded as 48.7 ± 30.6%. The IC50 in the series with Sk-Mel-2 turned out to be 65.2 ± 1.3 µM.

With `COC(=O)[C@H](CNC(=O)C1CC(CCc2ccc3cccnc3n2)C1)NS(=O)(=O)c1c(C)cc(C)cc1C` (stereo partly drawn) [ICT9061 44, (S)-methyl 3-((1s,3s)-3-(2-(1,8-naphthyridin-2-yl)ethyl)cyclobutanecarboxamido)-2-(2,4,6-trimethylphenylsulfonamido)propanoate], the “Adhesion % Inhibition @ 5 μM” value on αvβ3 was determined as 32.4 ± 16.1%. Moreover, the IC50 in the series on Sk-Mel-2 was determined as 46.8 ± 10.7 µM.

For `COC(=O)CCNC(=O)C1CC(CCc2ccc3cccnc3n2)C1` (stereo not shown) [ICT9065 42, Methyl 3-((1r,3s)-3-(2-(1,8-naphthyridin-2-yl)ethyl)cyclobutanecarboxamido)propanoate], the IC50 with Sk-Mel-2 was more than 100 µM.

As to `COC(=O)CCNC(=O)[C@H]1C[C@@H](CCc2ccc3c(n2)NCCC3)C1` [ICT9066 47, Methyl 3-((1r,3s)-3-(2-(5,6,7,8-tetrahydro-1,8-naphthyridin-2-yl)ethyl)cyclobutanecarboxamido)propanoate], the “Adhesion % Inhibition @ 50 μM” value on αvβ3 turned out to be 22.4 ± 29.3%. Besides, the IC50 in the series with Sk-Mel-2 is more than 100 µM.

On to `COC(=O)[C@H](CNC(=O)C1CC(Cc2ccc3cccnc3n2)C1)NS(=O)(=O)c1c(C)cc(C)cc1C` (stereo partly drawn) [ICT9079 43, (S)-methyl 3-((1s,3r)-3-((1,8-naphthyridin-2-yl)methyl)cyclobutanecarboxamido)-2-(2,4,6-trimethylphenylsulfonamido)propanoate], for which the “Adhesion % Inhibition @ 5 μM” value on αvβ3 was determined as 33.5 ± 26.2%. The compound further displayed an IC50 in the series on Sk-Mel-2 of approximately 100 µM.

On to `COC(=O)[C@H](CNC(=O)C1CC(Cc2ccc3c(n2)NCCC3)C1)NS(=O)(=O)c1c(C)cc(C)cc1C` (stereo partly drawn) [ICT9080 48, (S)-methyl 3-((1s,3r)-3-((5,6,7,8-tetrahydro-1,8-naphthyridin-2-yl)methyl)cyclobutanecarboxamido)-2-(2,4,6-trimethylphenylsulfonamido)propanoate], for which the “Adhesion % Inhibition @ 5 μM” value on αvβ3 was found to be 61.5 ± 11.1%. Also, in the series on Sk-Mel-2, the IC50 was determined as 54.6 ± 11 µM.
